Assays:
Experiment in all cases: relative viability (nuclei count vs DMSO), 5 days (fraction); higher = more cells survive
[1] = tested on: A-427
Outline: (§1)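 Lung cancer cell lines were seeded in 1536-well plates and dosed by pin tool the next day, with either a single drug or a fixed anchor-drug dose combined with five library-drug doses (not always all listed) spaced in √10 steps. Five days later, one step fixed the cells and stained their nuclei (final 0.05% Triton X-100, 1% formaldehyde, 1 ug/ml Hoechst), and nuclei were counted on 4× images. Relative viability is the nuclei count in treated wells divided by the count in vehicle wells, and each value is the median of duplicate plates.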

[2] = tested on: EPLC-272H
Outline: as §1

[3] = tested on: HCC-366
Outline: as §1

[4] = tested on: HCC-78
Outline: as §1

[5] = tested on: HOP-62
Outline: as §1

[6] = tested on: LC-2-ad
Outline: as §1

[7] = tested on: LU99A
Outline: as §1

[8] = tested on: LXF-289
Outline: as §1

[9] = tested on: NCI-H1666
Outline: as §1

[10] = tested on: NCI-H1792
Outline: as §1

[11] = tested on: NCI-H1793
Outline: as §1

[12] = tested on: NCI-H1915
Outline: as §1

[13] = tested on: NCI-H1944
Outline: as §1

[14] = tested on: NCI-H2085
Outline: as §1

[15] = tested on: NCI-H2170
Outline: as §1

[16] = tested on: NCI-H358
Outline: as §1

[17] = tested on: NCI-H460
Outline: as §1

[18] = tested on: SW 900
Outline: as §1

Nc1ccn([C@@H]2O[C@H](CO)[C@@H](O)[C@@H]2O)c(=O)n1 [Cytarabine] + NC(=O)Nc1cc(-c2cccc(F)c2)sc1C(=O)N[C@H]1CCCNC1 [AZD7762] (partner 0.2 µM)
relative viability ([1]; first compound 0.005 µM): 0.343
relative viability ([1]; first compound 0.01581 µM): 0.246
relative viability ([1]; first compound 0.05 µM): 0.218
relative viability ([1]; first compound 0.1581 µM): 0.184
relative viability ([1]; first compound 0.5 µM): 0.184
relative viability ([2]; first compound 0.005 µM): 0.335
relative viability ([2]; first compound 0.01581 µM): 0.273
relative viability ([2]; first compound 0.05 µM): 0.117
relative viability ([2]; first compound 0.1581 µM): 0.0659
relative viability ([2]; first compound 0.5 µM): 0.0636
relative viability ([3]; first compound 0.005 µM): 0.139
relative viability ([3]; first compound 0.01581 µM): 0.0915
relative viability ([3]; first compound 0.05 µM): 0.107
relative viability ([3]; first compound 0.1581 µM): 0.0525
relative viability ([3]; first compound 0.5 µM): 0.038
relative viability ([4]; first compound 0.005 µM): 0.614
relative viability ([4]; first compound 0.01581 µM): 0.779
relative viability ([4]; first compound 0.05 µM): 0.486
relative viability ([4]; first compound 0.1581 µM): 0.374
relative viability ([4]; first compound 0.5 µM): 0.314
relative viability ([5]; first compound 0.005 µM): 0.391
relative viability ([5]; first compound 0.01581 µM): 0.157
relative viability ([5]; first compound 0.05 µM): 0.203
relative viability ([5]; first compound 0.1581 µM): 0.107
relative viability ([5]; first compound 0.5 µM): 0.0888
relative viability ([6]; first compound 0.005 µM): 0.811
relative viability ([6]; first compound 0.01581 µM): 0.681
relative viability ([6]; first compound 0.05 µM): 0.674
relative viability ([6]; first compound 0.1581 µM): 0.245
relative viability ([6]; first compound 0.5 µM): 0.208
relative viability ([7]; first compound 0.005 µM): 0.444
relative viability ([7]; first compound 0.01581 µM): 0.362
relative viability ([7]; first compound 0.05 µM): 0.305
relative viability ([7]; first compound 0.1581 µM): 0.352
relative viability ([7]; first compound 0.5 µM): 0.115
relative viability ([8]; first compound 0.005 µM): 0.927
relative viability ([8]; first compound 0.01581 µM): 0.85
relative viability ([8]; first compound 0.05 µM): 0.442
relative viability ([8]; first compound 0.1581 µM): 0.123
relative viability ([8]; first compound 0.5 µM): 0.0877
relative viability ([9]; first compound 0.005 µM): 0.943
relative viability ([9]; first compound 0.01581 µM): 0.768
relative viability ([9]; first compound 0.05 µM): 0.666
relative viability ([9]; first compound 0.1581 µM): 0.444
relative viability ([9]; first compound 0.5 µM): 0.413
relative viability ([10]; first compound 0.01581 µM): 0.39
relative viability ([10]; first compound 0.05 µM): 0.275
relative viability ([10]; first compound 0.1581 µM): 0.0675
relative viability ([10]; first compound 0.5 µM): 0.0488
relative viability ([11]; first compound 0.005 µM): 0.304
relative viability ([11]; first compound 0.01581 µM): 0.417
relative viability ([11]; first compound 0.05 µM): 0.341
relative viability ([11]; first compound 0.1581 µM): 0.149
relative viability ([11]; first compound 0.5 µM): 0.111
relative viability ([12]; first compound 0.005 µM): 0.579
relative viability ([12]; first compound 0.01581 µM): 0.386
relative viability ([12]; first compound 0.05 µM): 0.241
relative viability ([12]; first compound 0.1581 µM): 0.155
relative viability ([12]; first compound 0.5 µM): 0.131
relative viability ([13]; first compound 0.005 µM): 0.353
relative viability ([13]; first compound 0.01581 µM): 0.204
relative viability ([13]; first compound 0.05 µM): 0.159
relative viability ([13]; first compound 0.1581 µM): 0.12
relative viability ([13]; first compound 0.5 µM): 0.135
relative viability ([14]; first compound 0.005 µM): 0.997
relative viability ([14]; first compound 0.01581 µM): 0.997
relative viability ([14]; first compound 0.05 µM): 0.956
relative viability ([14]; first compound 0.1581 µM): 0.694
relative viability ([14]; first compound 0.5 µM): 0.516
relative viability ([15]; first compound 0.005 µM): 0.666
relative viability ([15]; first compound 0.01581 µM): 0.515
relative viability ([15]; first compound 0.05 µM): 0.347
relative viability ([15]; first compound 0.1581 µM): 0.173
relative viability ([15]; first compound 0.5 µM): 0.136
relative viability ([16]; first compound 0.005 µM): 0.419
relative viability ([16]; first compound 0.01581 µM): 0.229
relative viability ([16]; first compound 0.05 µM): 0.208
relative viability ([16]; first compound 0.1581 µM): 0.221
relative viability ([16]; first compound 0.5 µM): 0.182
relative viability ([17]; first compound 0.005 µM): 0.209
relative viability ([17]; first compound 0.01581 µM): 0.0904
relative viability ([17]; first compound 0.05 µM): 0.0497
relative viability ([17]; first compound 0.1581 µM): 0.0319
relative viability ([17]; first compound 0.5 µM): 0.0286
relative viability ([18]; first compound 0.005 µM): 0.741
relative viability ([18]; first compound 0.01581 µM): 0.546
relative viability ([18]; first compound 0.05 µM): 0.451
relative viability ([18]; first compound 0.1581 µM): 0.191
relative viability ([18]; first compound 0.5 µM): 0.16

— the supplement of paper PMC10307832
